We go through twelve molecules from patent US20220273683A1, “BORON-CONTAINING SMALL MOLECULES” (Bill & Melinda Gates Foundation, priority 2016, published 2022).

The test system of assay [1] is Staphylococcus aureus, MRSA (ATCC 33591). Kind of assay: Antibacterial MIC assay (microbroth dilution, CLSI). The class given is cell-based. The following applies: 35° C., 16-20 hours. The source says: (§1) All MIC testing of bacteria followed the Clinical and Laboratory Standards Institute (CLSI) guidelines for antimicrobial testing of aerobic bacteria (Methods for Dilution Antimicrobial Susceptibility Tests for Bacteria that Grow Aerobically; Approved Standard—Tenth Edition, M07-A10; Performance Standards for Antimicrobial Susceptibility Testing; Twenty-fifth Informational Supplement, M100-S25).
(§2) Briefly, the microbroth dilution MIC method was used to quantitatively measure the in vitro antibacterial activity of a compound against a given bacterial isolate. The following bacterial strains were evaluated: Staphylococcus aureus, MRSA (ATCC 33591) and Streptococcus pneumoniae (ATCC 49619). Bacteria were grown in cation-adjusted Mueller-Hinton broth, with additions as required per species growth requirements (e.g. 3% lysed horse blood for fastidious organisms such as S. pneumoniae). A direct colony suspension in saline was prepared from colonies on an overnight agar plate to achieve a turbidity equivalent to 0.5 McFarland standard, which was subsequently diluted into the assay plate to achieve 5×10^5 CFU/mL. Assays plates were prepared by 2-fold dilution of compound across the plate and included a positive growth control.
Background: In broth dilution the organism is exposed to a series of concentrations in liquid medium.

For assay [2], the system named is Streptococcus pneumoniae (ATCC 49619). Described as above. The class given is cell-based. The following applies: 35° C., 16-20 hours; for MIC Streptococcus pneumoniae (ATCC 49619): 3% lysed horse blood.
Description: as §1, §2

Values after ≈ are worked out from the molar mass of the structure shown.

As for `C[C@@H]1CC[C@@]23CCC(=O)[C@H]2[C@]1(C)[C@H](OC(=O)COc1ccc2c(c1F)B(O)OC2)C[C@@](C)(CCN1CCCCC1)[C@@H](O)[C@@H]3C` [Compound 40, (3aR,4R,5R,7R,8S,9R,9aS,12R)-8-hydroxy-4,7,9,12-tetramethyl-3-oxo-7-(2-(piperidin-1-yl)ethyl)decahydro-4,9a-propanocyclopenta[8]annulen-5-yl2-((7-fluoro-1-hydroxy-1,3-dihydrobenzo[c][1,2]oxaborol-6-yl)oxy)acetate], the “MIC Staphylococcus aureus, MRSA (ATCC 33591)” value (shortened to “MIC Staphylococcus aureus”) in assay [1] is listed as “C (4-32 is C)”. Also, in assay [2], the “MIC Streptococcus pneumoniae (ATCC 49619)” value (“MIC Streptococcus pneumoniae” for short) is “D (≥64 is D)”.

In general, MIC refers to the lowest concentration that inhibits growth of the organism. Read a high MIC as weaker potency. In the case of `C[C@@H]1CC[C@@]23CCC(=O)[C@H]2[C@]1(C)[C@H](OC(=O)COc1ccc2c(c1F)B(O)OC2)C[C@@](C)(CCN1CCOCC1)[C@@H](O)[C@@H]3C` [Compound 41, (3aR,4R,5R,7R,8S,9R,9aS,12R)-8-hydroxy-4,7,9,12-tetramethyl-7-(2-morpholinoethyl)-3-oxodecahydro-4,9a-propanocyclopenta[8]annulen-5-yl 2-((7-fluoro-1-hydroxy-1,3-dihydrobenzo[c][1,2]oxaborol-6-yl)oxy)acetate], the MIC is 4 to 32 µg/mL (≈ 6.5 to 52 µM) in assay [1] (Staphylococcus aureus) and 4 to 32 µg/mL (≈ 6.5 to 52 µM) in assay [2] (Streptococcus pneumoniae, ATCC49619, 3% lysed horse blood).

Turning to `CCN(CC)CC[C@]1(C)C[C@@H](OC(=O)COc2ccc3c(c2F)B(O)OC3)[C@]2(C)[C@H](C)CC[C@]3(CCC(=O)[C@H]32)[C@@H](C)[C@@H]1O` [Compound 42, (3aR,4R,5R,7R,8S,9R,9aS,12R)-7-(2-(diethylamino)ethyl)-8-hydroxy-4,7,9,12-tetramethyl-3-oxodecahydro-4,9a-propanocyclopenta[8]annulen-5-yl2-((7-fluoro-1-hydroxy-1,3-dihydrobenzo[c][1,2]oxaborol-6-yl)oxy)acetate], the “MIC Staphylococcus aureus” value in assay [1] is listed as “C (4-32 is C)”. For the same molecule, the “MIC Streptococcus pneumoniae” value in assay [2] is recorded as “D (≥64 is D)”.

`C[C@@H]1CC[C@@]23CCC(=O)[C@H]2[C@]1(C)[C@H](OC(=O)COc1ccc2c(c1F)B(O)OC2)C[C@@](C)(C=NO)[C@@H](O)[C@@H]3C` [Compound 43, (3aR,4R,5R,7S,8S,9R,9aS,12R)-8-hydroxy-7-((hydroxyimino)methyl)-4,7,9,12-tetramethyl-3-oxodecahydro-4,9a-propanocyclopenta[8]annulen-5-yl2-((7-fluoro-1-hydroxy-1,3-dihydrobenzo[c][1,2]oxaborol-6-yl)oxy)acetate]: the “MIC Staphylococcus aureus” value in assay [1] is “A (MIC of ≤0.25 is A)”. Moreover, the “MIC Streptococcus pneumoniae” value in assay [2] is “C (4-32 is C)”.

`CON=C[C@]1(C)C[C@@H](OC(=O)COc2ccc3c(c2F)B(O)OC3)[C@]2(C)[C@H](C)CC[C@]3(CCC(=O)[C@H]32)[C@@H](C)[C@@H]1O` [Compound 44, (3aR,4R,5R,7S,8S,9R,9aS,12R)-8-hydroxy-7-((methoxyimino)methyl)-4,7,9,12-tetramethyl-3-oxodecahydro-4,9a-propanocyclopenta[8]annulen-5-yl2-((7-fluoro-1-hydroxy-1,3-dihydrobenzo[c][1,2]oxaborol-6-yl)oxy)acetate]: in assay [1], the “MIC Staphylococcus aureus” value was “A (MIC of ≤0.25 is A)”. Further, in assay [2], the “MIC Streptococcus pneumoniae” value is given as “C (4-32 is C)”.

Consider `CONC[C@]1(C)C[C@@H](OC(=O)COc2ccc3c(c2F)B(O)OC3)[C@]2(C)[C@H](C)CC[C@]3(CCC(=O)[C@H]32)[C@@H](C)[C@@H]1O` [Compound 45, (3aR,4R,5R,7S,8S,9R,9aS,12R)-8-hydroxy-7-((methoxyamino)methyl)-4,7,9,12-tetramethyl-3-oxodecahydro-4,9a-propanocyclopenta[8]annulen-5-yl2-((7-fluoro-1-hydroxy-1,3-dihydrobenzo[c][1,2]oxaborol-6-yl)oxy)acetate], for which, in assay [1], the “MIC Staphylococcus aureus” value is “B (0.5-2 is B)”. For the same molecule, in assay [2], the “MIC Streptococcus pneumoniae” value is recorded as “C (4-32 is C)”.

Turning to `CC(C)ON=C[C@]1(C)C[C@@H](OC(=O)COc2ccc3c(c2F)B(O)OC3)[C@]2(C)[C@H](C)CC[C@]3(CCC(=O)[C@H]32)[C@@H](C)[C@@H]1O` [Compound 46, (3aR,4R,5R,7S,8S,9R,9aS,12R)-8-hydroxy-7-((isopropoxyimino)methyl)-4,7,9,12-tetramethyl-3-oxodecahydro-4,9a-propanocyclopenta[8]annulen-5-yl2-((7-fluoro-1-hydroxy-1,3-dihydrobenzo[c][1,2]oxaborol-6-yl)oxy)acetate], the “MIC Staphylococcus aureus” value in assay [1] was “B (0.5-2 is B)”. Also, the “MIC Streptococcus pneumoniae” value in assay [2] is on record as “C (4-32 is C)”.

As to `C[C@@H]1CC[C@@]23CCC(=O)[C@H]2[C@]1(C)[C@H](OC(=O)COc1ccc2c(c1F)B(O)OC2)C[C@@](C)(CN)[C@@H](O)[C@@H]3C` [Compound 47, (3aR,4R,5R,7S,8S,9R,9aS,12R)-7-(aminomethyl)-8-hydroxy-4,7,9,12-tetramethyl-3-oxodecahydro-4,9a-propanocyclopenta[8]annulen-5-yl2-((7-fluoro-1-hydroxy-1,3-dihydrobenzo[c][1,2]oxaborol-6-yl)oxy)acetate], in assay [1], the “MIC Staphylococcus aureus” value was “B (0.5-2 is B)”. The “MIC Streptococcus pneumoniae” value in assay [2] is “C (4-32 is C)”.

Take `CC(=O)NC[C@]1(C)C[C@@H](OC(=O)COc2ccc3c(c2F)B(O)OC3)[C@]2(C)[C@H](C)CC[C@]3(CCC(=O)[C@H]32)[C@@H](C)[C@@H]1O` [Compound 48, (3aR,4R,5R,7S,8S,9R,9aS,12R)-7-(acetamidomethyl)-8-hydroxy-4,7,9,12-tetramethyl-3-oxodecahydro-4,9a-propanocyclopenta[8]annulen-5-yl2-((7-fluoro-1-hydroxy-1,3-dihydrobenzo[c][1,2]oxaborol-6-yl)oxy)acetate]: the “MIC Staphylococcus aureus” value in assay [1] is given as “B (0.5-2 is B)”. Besides, the “MIC Streptococcus pneumoniae” value in assay [2] was “C (4-32 is C)”.

Turning to `C[C@@H]1CC[C@@]23CCC(=O)[C@H]2[C@]1(C)[C@H](OC(=O)COc1ccc2c(c1F)B(O)OC2)C[C@@](C)(CN)[C@@H](OS(C)(=O)=O)[C@@H]3C` [Compound 50, (3aR,4R,5R,7S,8S,9R,9aS,12R)-7-(aminomethyl)-4,7,9,12-tetramethyl-8-((methylsulfonyl)oxy)-3-oxodecahydro-4,9a-propanocyclopenta[8]annulen-5-yl2-((7-fluoro-1-hydroxy-1,3-dihydrobenzo[c][1,2]oxaborol-6-yl)oxy)acetate], the “MIC Staphylococcus aureus” value in assay [1] is “C (4-32 is C)”. In assay [2], the “MIC Streptococcus pneumoniae” value was “C (4-32 is C)”.

For `Cc1nnc(/C=C/[C@]2(C)C[C@@H](OC(=O)COc3ccc4c(c3F)B(O)OC4)[C@]3(C)[C@H](C)CC[C@]4(CCC(=O)[C@H]43)[C@@H](C)[C@@H]2O)o1` [Compound 51, (3aR,4R,5R,7S,8S,9R,9aS,12R)-8-hydroxy-4,7,9,12-tetramethyl-7-((E)-2-(5-methyl-1,3,4-oxadiazol-2-yl)vinyl)-3-oxodecahydro-4,9a-propanocyclopenta[8]annulen-5-yl2-((7-fluoro-1-hydroxy-1,3-dihydrobenzo[c][1,2]oxaborol-6-yl)oxy)acetate], the “MIC Staphylococcus aureus” value in assay [1] is listed as “B (0.5-2 is B)”. The “MIC Streptococcus pneumoniae” value in assay [2] was “B (0.5-2 is B)”.

For `Cc1noc(/C=C/[C@]2(C)C[C@@H](OC(=O)COc3ccc4c(c3F)B(O)OC4)[C@]3(C)[C@H](C)CC[C@]4(CCC(=O)[C@H]43)[C@@H](C)[C@@H]2O)n1` [Compound 52, (3aR,4R,5R,7S,8S,9R,9aS,12R)-8-hydroxy-4,7,9,12-tetramethyl-7-((E)-2-(3-methyl-1,2,4-oxadiazol-5-yl)vinyl)-3-oxodecahydro-4,9a-propanocyclopenta[8]annulen-5-yl2-((7-fluoro-1-hydroxy-1,3-dihydrobenzo[c][1,2]oxaborol-6-yl)oxy)acetate], the “MIC Staphylococcus aureus” value in assay [1] is “A (MIC of ≤0.25 is A)”. Besides, the “MIC Streptococcus pneumoniae” value in assay [2] was “A (MIC of ≤0.25 is A)”.
